In one data set the test system is HIV. Put plainly: Antiviral assay: inhibition of the killing of HIV-infected T4 lymphocytes (CEM cell line), XTT formazan readout. The settings on record: for EC50: Human immunodeficiency virus 1, CCRF-CEM, read-out: EC50, Inhibition of the killing of HIV-infected T4-lymphocytes; for therapeutic index (IC50 divided by EC50): in cell culture. It is filed as cell-based. How it is done:
The procedure used in the test for agents active against (HIV) is designed to detect agents acting at any stage of the virus reproductive cycle. The assay basically involves the killing of T4 lymphocytes by HIV. Small amounts of HIV are added to cells, and at least two complete cycles of virus reproduction are necessary to obtain the required cell killing. Agents which interact with virions, cells, or virus gene-products to interfere with viral activities will protect cells from cytolysis. The system is automated in several features to accommodate large numbers of candidate agents, and is generally designed to detect anti-HIV activity. However, compounds which degenerate or are rapidly metabolized in the culture conditions may not show activity in this screen. Also, while every attempt has been made to reduce variability, precise values for EC₅₀, IC₅₀, and Therapeautic Index are not possible. All tests are compared with a positive (AZT-treated) control done at the same time under identical conditions.
• 1. T4 lymphocytes (CEM cell line) are exposed to HIV at a virus to cell ratio approximately 0.05, and plated along with noninfected control cells in 96-well microtiter plates. • 2. The candidate agent is dissolved in dimethyl sulfoxide (unless otherwise instructed), then diluted 1:200 in cell culture medium. Further dilutions (half-log₁₀) are prepared before adding to an equal volume of medium containing either infected or noninfected cells. • 3. Cultures are incubated at 37 °C in a 5% carbon dioxide atmosphere for 6 or 7 days. • 4. The tetrazolium salt, XTT, is added to all wells, and cultures are incubated to allow formazan color development by viable cells. • 5. Individual wells are analyzed spectrophotometrically to quantitate formazan production, and in addition are viewed microscopically for detection of viable cells and confirmation of protective activity. • 6. Drug-treated virus-infected cells are compared with drug-treated noninfected cells and with other appropriate controls (untreated infected and untreated noninfected cells, drug-containing wells without cells, etc.) on the same plate. • 7. Data are reviewed in comparison with other tests done at the same time, and a determination about activity is made.

The subject of another data set is Vero cells. Put plainly: Effect on the replication of Vero cells. The settings on record: for inhibition at 100 µg/mL: Conc. 100 ug/ml. It is filed as cell-based. How it is done: A second experiment shown in Table II herebelow was conducted to show the effects of various compounds on replication of Vero cells. […] This is indicative of much lower toxicity than AZT, (Compound No. 1) which inhibit a much higher percentage of these cells at a given concentration. TABLE II [table]

Structures are written as SMILES. ≈ marks a conversion by molar mass, not a printed value.

What is called EC50 is the midpoint of the concentration-response curve. For `Cc1cn([C@H]2C=C(n3ccnn3)[C@@H](CO)O2)c(=O)[nH]c1=O` [Compound 2, 1-[2′,3′-Didehydro-2′,3′-dideoxy-3′-(1˝-1˝,2˝,3˝-triazolo)ribofuranosyl]thymine], the concentration for a half-maximal effect (EC50) in the data set on HIV was more than 100 µg/mL.

For orientation: inhibition means the change of the read-out against control, counted positive when it falls. Lower therefore signals a weak effect. As for `Cc1nnc(S(=O)(=O)C2=C[C@H](n3cc(C)c(=O)[nH]c3=O)O[C@@H]2CO)s1` [Compound 5, 1-[2′,3′-Didehydro-2′,3′-dideoxy-3′-(2˝-sulfono-5˝-methyl-1˝,3˝,4˝-thiadiazolo)ribofuranosyl]thymine], in the data set on HIV, the concentration giving a half-maximal response (EC50) was found to be 4.9 µg/mL (≈ 12.7 µM) and the “therapeutic index (IC50 divided by EC50)” value is on record as approximately 170. Besides, the inhibition at 50 µg/mL with Vero cells (Chlorocebus sabaeus, Vero, Conc. 50 ug/ml) worked out at 0%. The same compound gave an inhibition at 75 µg/mL in the data set on Vero cells (Chlorocebus sabaeus, Vero, Conc. 75 ug/ml) of 10%. In the data set on Vero cells (Chlorocebus sabaeus, Vero), this compound displayed an inhibition at 100 µg/mL of 20%. For the same compound, the “inhibition of Vero cells, in words” value in the data set with Vero cells (fast growing Vero cells) is “little inhibition”.

As to `Cc1cn([C@H]2C=C(C#N)[C@@H](CO)O2)c(=O)[nH]c1=O` [Compound 4, 1-(3′-Cyano-2˝,3˝-didehydro-2′,3′-dideoxyribofuranosyl)thymine], in the data set with HIV, the EC50 was more than 100 µg/mL.

Regarding `C#CC1=C[C@H](n2cc(C)c(=O)[nH]c2=O)O[C@@H]1CO` [Compound 3, 1-(2′,3′-Didehydro-2′,3′-dideoxy-3′-ethynylribofuranosyl)thymine], the 50% effective concentration (EC50) with HIV was more than 100 µg/mL.

`Cc1cn([C@H]2C[C@H](N=[N+]=[N-])[C@@H](CO)O2)c(=O)[nH]c1=O` [AZT, 3′-azido-3′-deoxythymidine, reference compound]: the “therapeutic index (IC50 divided by EC50)” value in the data set on HIV is reported as “about 100”. Moreover, the inhibition at 10 µg/mL with Vero cells (Chlorocebus sabaeus, Vero, Conc. 10 ug/ml) came to 21%. Further, in the data set on Vero cells (Chlorocebus sabaeus, Vero), the inhibition at 100 µg/mL was determined as 86%.
